{"source": "patent US20200369728A1", "about": "“PEPTIDOMIMETIC MACROCYCLES AND USES THEREOF” (Aileron Therapeutics, Inc., priority 2015, published 2020)", "key": {"MOLT-3": {"tested_on": "MOLT-3", "assay": "WST-1 / MTT cell proliferation assay, MOLT-3", "format": "cell-based, human", "method": "All media were supplemented with 10% (v/v) fetal calf serum, 100 units penicillin and 100 μg/ml streptomycin at 37° C. and 5% CO2.\nOne day prior to assaying, cells were trypsinized, counted and seeded at pre-determined densities in 96-well plates as follows: MCF-7, 5000 cells/well/200 μl; MOLT-3, 30,000 cells/well/200 μl. […] The WST-1 variant of the MTT assay was used to measure cell viability according to the manufacturer's protocol. WST-1 is a cell-impermeable, sulfonated tetrazolium salt that can be used to examine cell viability without killing the cells.\nInitially, various MOLT-3 cell numbers were plated and evaluated 3-7 days later to determine the optimal number of cells to be plated and treatment duration.\nCells were evaluated for viability by WST-1 assay or MTT assay 3-7 days after beginning the sequential treatment (FIGS. 33 and 34).\nCells were evaluated for viability by WST-1 assay or MTT assay 3-7 days after beginning treatment with rituximab (FIGS. 68B and 69B) or romidepsin (FIGS. 71B and 72B)."}, "A375": {"tested_on": "A375", "assay": "Cell viability, A375 melanoma cell line (single agents and combinations)", "format": "cell-based, human", "conditions": "for combination effect with PLX4032 (Zelboraf, vemurafenib): B-Raf-mutant melanoma cell line A375"}, "Mel-Ho (V600E)": {"tested_on": "Mel-Ho (V600E)", "assay": "Combination with PLX4032 in Mel-Ho", "format": "cell-based"}, "DOHH-2": {"tested_on": "DOHH-2", "assay": "WST-1 / MTT cell viability, DOHH-2", "format": "cell-based, human", "method": "Initially, various DOHH-2 cell numbers were plated and evaluated 3-7 days later to determine the optimal number of cells to be plated and treatment duration.\n(§2) A drug combination index plot was used to assess the synergistic, additive, or antagonistic properties of each combination treatment. […] Combination index (CI) values were calculated using the CompuSyn software. The data were expressed as log(CI)."}, "MCF-7": {"tested_on": "MCF-7", "assay": "CyQUANT cell viability, MCF-7", "format": "cell-based, human", "conditions": "MCF-7, sequential treatment, 72 hrs", "procedure": "Cells were also evaluated for viability using the CyQUANT method after beginning treatment (FIGS. 78A and 79A). Cells were evaluated for viability using the CyQUANT method after beginning the simultaneous treatments (FIGS. 78B and 79B). […] The data were expressed as log(CI).\nThe anticancer activity of the combination treatment was assessed based on the order of addition of the drugs."}, "p53-pathway [1]": {"tested_on": "p53-pathway", "assay": "Western blot of p53-pathway, Molm13, OCI/AML3, Molm14 and ML2 cell lines", "format": "cell-based", "conditions": "Molm13, OCI/AML3, Molm14 and ML2, 1.0 μM", "procedure": "The Molm13, OCI/AML3, Molm14 and ML2 cell lines were treated with vehicle or 1.0 μM Aileron peptide (FIG. 1B)."}, "p53-pathway [2]": {"tested_on": "p53-pathway", "assay": "mRNA expression of p21, MDM2, Puma, Bax, Gadd45a in Molm13 and Oci/AML3", "format": "cell-based", "conditions": "Molm13 and Oci/AML3, 0.1-10.0 μM", "description": "Expression levels were normalized to GAPDH mRNA expression levels."}, "p53-pathway [3]": {"tested_on": "p53-pathway", "assay": "Western blot of p53-pathway, primary AML cells", "format": "cell-based", "conditions": "1.0 or 5.0 μM", "from_the_text": "(§3) Lysates were subjected to SDS-PAGE and probed by Western blotting with antibodies specific to MDM2, p53, p21, and β-Actin."}, "p53": {"tested_on": "p53", "assay": "p53 stabilization in AML cells (Western blot, dose and time)", "format": "cell-based", "conditions": "AML p53 wild type cell lines, 0.1-10.0 μM, 24, 48 or 72 hrs", "from_the_text": "as §3"}, "[4]": {"tested_on": "Molm13, OCI/AML3, Molm14, HL60 and ML2 cell lines", "assay": "Clonogenicity assay on AML cell lines", "format": "cell-based", "conditions": "p53 wild type cell lines, 1.0 μM", "procedure": "A clonogenicity assay was then performed and the number of clonies was counted (FIG. 6)."}, "[5]": {"tested_on": "Molm13, OCI/AML3, Molm14, HL60 and ML2 cell lines", "assay": "Apoptosis assay of AML cell lines (DAPI / Annexin-V FACS)", "format": "cell-based", "conditions": "p53 wild type AML cell lines, 1.0, 5.0 or 10.0 μM", "procedure": "(§1) Cells were probed with DAPI and a FITC-labeled anti-Annexin-V antibody. FACS analysis was performed to determine the number of viable cells and the number of cells in early apoptosis, late apoptosis and undergoing necrosis and the results were plotted."}, "primary AML cell line [6]": {"tested_on": "primary AML cell line", "assay": "Clonogenicity assay on primary AML cell lines", "format": "cell-based", "conditions": "0.1-1.0 μM", "procedure": "A clonogenicity assay was then performed and the number of clonies was counted."}, "primary AML cell line [7]": {"tested_on": "primary AML cell line", "assay": "Apoptosis assay on primary AML cell lines", "format": "cell-based", "conditions": "primary AML cells, 1.0, 5.0 or 10.0 μM", "procedure": "as §1"}, "MV4-11": {"tested_on": "MV4-11", "assay": "WST-1 / MTT cell viability, MV4-11", "method": "Initially, various MV4-11 cell numbers were plated and evaluated 3-7 days later to determine the optimal number of cells to be plated and treatment duration.\nCells were evaluated for viability by WST-1 assay or MTT assay 3-7 days after beginning treatment.\nas §2"}, "[8]": {"conditions": "DOHH-2, sequential treatment, 72 hrs"}, "[9]": {"conditions": "MV4-11, sequential treatment, 72 hrs"}}, "note": "Entries after “also recorded” stand apart in the source; their conditions may differ. Read-outs that look alike come from different tables or passages of the source."}
{"compound": "CC(=O)N[C@@H](CC(C)C)C(=O)N[C@H](C(=O)N[C@@H](Cc1ccccc1)C(=O)N[C@]1(C)CCCCCCC=CCCC[C@@](C)(C(=O)N[C@@H](C)C(=O)N[C@@H](C)C(=O)N[C@@H](C)C(=O)N[C@@H](C)C(=O)N[C@@H](C)C(=O)N[C@H](C)C(N)=O)NC(=O)[C@H](CC(C)C)NC(=O)[C@H](CCC(N)=O)NC(=O)[C@H](C)NC(=O)[C@H](Cc2c[nH]c3ccccc23)NC(=O)[C@H](Cc2ccc(O)cc2)NC(=O)[C@H](CCC(=O)O)NC1=O)[C@@H](C)O", "note": "[Aileron peptide 1]", "values": [{"measurement": "combination effect of AP1 with romidepsin", "setting": "MOLT-3", "result": "enhances Aileron peptide 1 inhibition of cancer cell proliferation and cell killing"}, {"measurement": "combination effect of AP1 with romidepsin", "setting": "MOLT-3; listed as AP1", "result": "complementary in vitro anticancer activity; also recorded: mostly additive complimentarity"}, {"measurement": "combination effect with PLX4032 (Zelboraf, vemurafenib)", "setting": "A375", "result": "synergy"}, {"measurement": "combination effect with PLX4032 (Zelboraf, vemurafenib)", "setting": "A375; listed as AP1", "result": "additive or better complimentarity"}, {"measurement": "EC50", "setting": "A375; single agent, read-out: EC50 on A375 cells", "result": 0.07, "unit": "µM"}, {"measurement": "combination effect with PLX4032 (Zelboraf)", "setting": "Mel-Ho (V600E)", "result": "synergy"}, {"measurement": "combination effect of AP1 with rituximab", "setting": "DOHH-2; DOHH-2 (figure legends), listed as AP1", "result": "complementary in vitro anticancer activity; also recorded: additive or better complimentarity"}, {"measurement": "order of addition: effect on cell growth, AP1 and CTX", "setting": "DOHH-2; [8]", "result": "suppressed DOHH-2 cell growth with or without CTX"}, {"measurement": "order of addition: effect on cell growth, AP1 and VCR", "setting": "DOHH-2; [8]", "result": "suppressed DOHH-2 cell growth with or without VCR"}, {"measurement": "combination effect of AP1 with CTX", "setting": "DOHH-2; DOHH-2, listed as AP1", "result": "complementary in vitro anticancer activity; also recorded: synergistic; also recorded: additive or better complimentarity"}, {"measurement": "combination effect of AP1 with VCR", "setting": "DOHH-2; DOHH-2, listed as AP1", "result": "complementary in vitro anticancer activity; also recorded: mostly synergistic; also recorded: additive or better complimentarity"}, {"measurement": "EC50", "setting": "DOHH-2; single agent, read-out: EC50 on DOHH-2 cells", "result": 0.06, "unit": "µM"}, {"measurement": "order of addition: effect on cell growth, AP1 and palbociclib", "setting": "MCF-7", "result": "suppressed MCF-7 cell growth with or without palbociclib"}, {"measurement": "activation of the p53-pathway", "setting": "p53-pathway [1]", "result": "activates the p53-pathway"}, {"measurement": "activation of the p53-pathway (mRNA normalized to GAPDH)", "setting": "p53-pathway [2]", "result": "activates the p53-pathway"}, {"measurement": "activation of the p53-pathway", "setting": "p53-pathway [3]", "result": "activates the p53-pathway"}, {"measurement": "p53 stabilization", "setting": "p53", "result": "stabilizes p53 in a time and dose dependant manner"}, {"measurement": "clonogenic capacity", "setting": "[4]", "result": "inhibited their clonogenic capacity"}, {"measurement": "apoptotic cell death", "setting": "[5]", "result": "induces apoptotic cell death"}, {"measurement": "clonogenic capacity", "setting": "primary AML cell line [6]", "result": "inhibited its clonogenic capacity to a higher extent"}, {"measurement": "apoptotic cell death", "setting": "primary AML cell line [7]", "result": "induces apoptotic cell death"}, {"measurement": "order of addition: effect on cell growth, AP1 and Ara-C", "setting": "MV4-11; [9]", "result": "suppressed MV4-11 cell growth with or without Ara-C"}, {"measurement": "order of addition: effect on cell growth, AP1 and azacitidine", "setting": "MV4-11; [9]", "result": "suppressed MV4-11 cell growth with or without azacitidine"}, {"measurement": "order of addition: effect on cell growth, AP1 and decitabine", "setting": "MV4-11; [9]", "result": "suppressed MV4-11 cell growth with or without decitabine"}, {"measurement": "order of addition: effect on cell growth, AP1 and midostaurin", "setting": "MV4-11; [9]", "result": "suppressed MV4-11 cell growth with or without midostaurin"}, {"measurement": "combination effect of AP1 with Ara-C", "setting": "MV4-11; MV4-11, listed as AP1", "result": "complementary in vitro anticancer activity; also recorded: mostly additive with some degree of synergy; also recorded: additive or better complimentarity"}, {"measurement": "combination effect of AP1 with azacitidine", "setting": "MV4-11; MV4-11, listed as AP1", "result": "complementary in vitro anticancer activity; also recorded: mostly additive with some synergy; also recorded: additive or better complimentarity"}, {"measurement": "combination effect of AP1 with decitabine", "setting": "MV4-11; MV4-11, listed as AP1", "result": "complementary in vitro anticancer activity; also recorded: mostly additive; also recorded: additive or better complimentarity"}, {"measurement": "combination effect of AP1 with midostaurin", "setting": "MV4-11; MV4-11, listed as AP1", "result": "complementary in vitro anticancer activity; also recorded: mostly synergistic; also recorded: additive or better complimentarity"}]}
